We go through 26 compounds from patent US20250304593A1 (Skyhawk Therapeutics, Inc., priority 2022, published 2025).

In experiment [1] the test system is total ATXN3 protein. In words: ATXN3 total protein assay (Mesoscale Discovery). It is filed as cell-based, Human. The following applies: SK-N-MC cells, 48 hours incubation, MSD assay; read-out: ATXN3 Potency - Protein IC50. As to the method: Human neuroblastoma SK-N-MC cells were seeded at 10,000 cells/well in 384 well plates one day prior to compound treatment. The concentrations of compounds were tested at appropriate doses ranging from 30 µM to 0.6 nM. After incubation for 48 hours, the cells were lysed with 25.L of lysis buffer containing protease inhibitors, and total ATXN3 protein levels were assessed by Mesoscale Discovery (MSD) assay developed with one pair of anti-ATXN3 antibodies. The capture and detect antibodies were raised in mouse and rabbit respectively. Anti-rabbit MSD-ST antibody was used for secondary antibody.
ATXN3 recombinant protein was used for standards. The readouts were captured with 35 μL of MSD read buffer and multi-array 384-well high binding plates.

For experiment [2], the system named is ATXN3 transcripts containing exon 4 (E4E5). In words: ATXN3 quantitative splicing assay (qPCR, E4E5 primers/probe detecting transcripts containing exon 4). It is filed as cell-based. To be noted: Homo sapiens, SK-N-MC cells, 24 h treatment. As to the method:
Human neuroblastoma SK-N-MC cells were plated in 384-well plates at 20,000 cells/well. Twenty-four hours after plating, cells were treated with compounds for 24 h at appropriate concentrations ranging from 30.M to 0.6 nM (0.300 DMS0). Treated cells were lysed in 15.L of lysis buffer, and cDNA was synthesized using the Fast Advanced Cells-to-Ct kit. Two L of each cDNA was used in qPCR reactions to confirm the exon 4 skipped transcripts of ATXN3. A second set of primers/probe E4E5 was used to detect the transcripts containing exon 4. The third set of primers/probe E8E9 was used to detect total gene level of ATXN3. The qPCR reactions were prepared in 384-well plates in 10 L volume, using TaqMan™ Fast Advanced Master Mix with primers and probes shown in the table below. Reactions were run in a Quant Studio 6 qPCR instrument with default settings.
The primers and probes are listed below in Table 4.
A general note: Quantitative PCR measures a nucleic acid by following its amplification.

Experiment [3] relates to ATXN3-HiBiT protein. Kind of experiment: ATXN3 HiBiT assay (luminescence, Kelly-ATXN3-HiBiT cell line). It is filed as cell-based. The following applies: Kelly-ATXN3-HiBiT cells, read out 48 h after addition of compound. From the text: To monitor ATXN3 protein levels by luminescence, a Kelly-ATXN3-HiBiT cell line with homozygous knock-in of HiBiT at the C-terminus of the endogenous ATXN3 gene was used (knock-in of the HiBiT-tag coding sequence SEQ ID NO. 14: 5′[…]3′ into exon 11 of ATXN3 -position 1114 of ATXN3 RefSeq NM_004993.6). Manipulations of the Kelly-ATXN3-HiBiT cell line that result in downregulation of the ATXN3-HiBiT protein (through modulation of ATXN3-HiBiT pre-mRNA splicing) can be followed by monitoring the luminescence signal of the HiBiT tag using the Nano Glo HiBiT Lytic Detection System (Promega, #N3050). Kelly-ATXN3-HiBiT cells were maintained in RPMI 1640 w/Glutamax (Gibco, #61870010), 10% FBS (Sigma Aldrich, #F8687), 1% Penicillin/Streptomycin (Gibco, #15140-122) at 37° C., 5% CO2. To assess HiBiT-luminescence signal upon compound treatment, 2000 Kelly-ATXN3-HiBiT cells were seeded per well in 384 plate format. Compounds were added 24 h after seeding. ATXN3-HiBiT-luminescence signal was read out 48 h after addition of the compound using the Nano Glo HiBiT Lytic Detection System (Promega, #N3050) according to the manufacturer's instructions. To control for cell viability, an identically prepared sister plate was read out with the CellTiter-Glo® 2.0 Assay (Promega, #G9243) according to the manufacturer's instructions. Fold changes of ATXN3-HiBiT-luminescence and of CellTiter-Glo viability signals were calculated relative to a DMSO control condition.
Background: With HiBiT, luminescence reflects the tagged protein that the partner subunit can reach.

With `CC(N)Cc1cc2nc(Cl)nc(NCc3ccncc3)c2o1` (centres unmarked) [Compound 1, 6-(2-aminopropyl)-2-chloro-N-(pyridin-4-ylmethyl)furo [3,2-d]pyrimidin-4-amine], the IC50 in experiment [1] and in experiment [2] was 10000 to 40000 nM throughout.

On to `CC(N)Cc1cc2nc(Cl)nc(NCc3ccccc3)c2o1` (centres unmarked) [Compound 2, 2-(2-aminopropyl)-7-benzyl-amino-5-chloro-1-oxa-4,6-diazaindene], for which the IC50 in experiment [1] and in experiment [2] was 10000 to 40000 nM each time.

Consider `Clc1nc(NCc2ccncc2)c2occc2n1` [Compound 3, [(4-pyridyl)methyl](5-chloro-1-oxa-4,6-diaza-7-indenyl)-amine], for which the IC50 in experiment [1] and in experiment [2] was 10000 to 40000 nM throughout.

`Clc1nc(NCc2ccccc2)c2occc2n1` [Compound 4, N-benzyl-2-chlorofuro[3,2-d]pyrimidin-4-amine]: the IC50 in experiment [1] and in experiment [2] was 10000 to 40000 nM each time.

As to `C/C=C/c1cc2nc(Cl)nc(NCc3ccccc3)c2o1` [Compound 5, N-benzyl-2-chloro-6-(prop-1-en-1-yl)furo[3,2-d]pyrimidin-4-amine], the IC50 in experiment [1] and in experiment [2] was 10000 to 40000 nM each time.

For `C/C=C/c1cc2nc(Cl)nc(NCc3ccncc3)c2o1` [Compound 6], the IC50 in experiment [1] and in experiment [2] was 10000 to 40000 nM throughout.

On to `Cc1c(C[C@H](C)N)oc2c(NCc3nccs3)nc(Cl)nc12` [Compound 7], for which the IC50 in experiment [1] and in experiment [2] was 10000 to 40000 nM each time.

Regarding `Cc1c(C[C@H](C)N)oc2c(NCc3ccco3)nc(Cl)nc12` [Compound 8, 2-[(S)-2-aminopropyl]-5-chloro-7-(furfurylamino)-3-methyl-1-oxa-4,6-diaza-indene], the IC50 in experiment [1] and in experiment [2] was 501 to 5000 nM in each case.

Consider `Cc1coc2c(NCc3nccs3)nc(Cl)nc12` [Compound 9, [(1,3-thiazol-2-yl)methyl](5-chloro-3-methyl-1-oxa-4,6-diaza-7-indenyl)amine], for which the half-inhibitory concentration (IC50) in experiment [1] and in experiment [2] was 10000 to 40000 nM in each case.

With `Cc1coc2c(NCc3ccco3)nc(Cl)nc12` [Compound 10, (furfuryl)(5-chloro-3-methyl-1-oxa-4,6-diaza-7-indenyl)-amine], the IC50 in experiment [1] and in experiment [2] was 501 to 5000 nM in each case.

As to `Cc1c(C[C@H](C)N)oc2c(NCc3cccs3)nc(Cl)nc12` [Compound 11, 2-[(S)-2-aminopropyl]-5-chloro-3-methyl-7-thenyl-amino-1-oxa-4,6-diaza-indene], the concentration for half-maximal inhibition (IC50) in experiment [1] and in experiment [2] was 501 to 5000 nM each time.

Take `C#Cc1c(C[C@@H](N)[C@H](C)F)oc2c(NCc3ccco3)nc(Cl)nc12` [Compound 12, 2-[(2R,3S)-2-amino-3-fluoro-butyl]-5-chloro-3-ethynyl-7-(furfurylamino)-1-oxa-4,6-diazaindene]: in experiment [3], the EC50 (commonly the concentration giving half of the maximal effect) was in the range of 0.01 to 100 nM. The IC50 in experiment [1] and in experiment [2] was 0.01 to 100 nM each time.

In turn, `C#Cc1c(C[C@@H](N)[C@H](C)F)oc2c(NCc3cccs3)nc(Cl)nc12` [Compound 13, 6-[(2R,3S)-2-amino-3-fluorobutyl]-2-chloro-7-ethynyl-N-(thiophen-2-ylmethyl)furo[3,2-d]pyrimidin-4-amine] displayed a half-maximal effective concentration (EC50) in experiment [3] of 0.01 to 100 nM. In addition, the IC50 in experiment [1] and in experiment [2] was 0.01 to 100 nM in each case.

As for `C[C@H](F)[C@H](N)Cc1oc2c(NCc3ccco3)nc(Cl)nc2c1Br` [Compound 14, 2-[(2R,3S)-2-amino-3-fluoro-butyl]-3-bromo-5-chloro-7-(furfurylamino)-1-oxa-4,6-diazaindene], in experiment [3], the EC50 fell in the range of 0.01 to 100 nM. For the same compound, the IC50 in experiment [1] and in experiment [2] was 0.01 to 100 nM each time.

On to `C[C@H](F)[C@H](N)Cc1oc2c(NCc3cccs3)nc(Cl)nc2c1Br` [Compound 15, 2-[(2R,3S)-2-amino-3-fluoro-butyl]-3-bromo-5-chloro-7-thenylamino-1-oxa-4,6-diazaindene], for which the EC50 in experiment [3] is 101 to 500 nM. Besides, the figures for the IC50 in experiment [1] and in experiment [2] were 101 to 500 nM and 0.01 to 100 nM, respectively.

In experiment [3], `C[C@H](F)[C@H](N)Cc1oc2c(NCc3ccco3)nc(Cl)nc2c1Cl` [Compound 16, 2-[(2R,3S)-2-amino-3-fluoro-butyl]-3,5-dichloro-7-(furfur-ylamino)-1-oxa-4,6-diaza-indene] had an EC50 of 0.01 to 100 nM. In addition, the concentration for half-maximal inhibition (IC50) (as a rule, the midpoint of a concentration-inhibition curve) in experiment [1] fell in the range of 101 to 500 nM; in experiment [2], 0.01 to 100 nM.

Turning to `C[C@H](F)[C@H](N)Cc1oc2c(NCc3cccs3)nc(Cl)nc2c1Cl` [Compound 17, 2-[(2R,3S)-2-amino-3-fluoro-butyl]-3,5-dichloro-7-thenyl-amino-1-oxa-4,6-diazaindene], in experiment [3], the EC50 is 101 to 500 nM. In addition, the half-maximal inhibitory concentration (IC50) in experiment [1] and in experiment [2] was 101 to 500 nM each time.

On to `C[C@H](F)[C@H](N)Cc1oc2c(NCc3nccs3)nc(Cl)nc2c1Br` [Compound 18, 2-[(2R,3S)-2-amino-3-fluoro-butyl]-3-bromo-5-chloro-7-{[(1,3-thiazol-2-yl)methyl]-amino}-1-oxa-4,6-diaza-indene], for which the EC50 in experiment [3] is 101 to 500 nM. Besides, the IC50 in experiment [1] and in experiment [2] was 101 to 500 nM each time.

On to `C[C@H](F)[C@H](N)Cc1oc2c(NCc3ccccc3)nc(Cl)nc2c1Br` [Compound 19, 2-[(2R,3S)-2-amino-3-fluoro-butyl]-7-benzylamino-3-bromo-5-chloro-1-oxa-4,6-diazaindene], for which the EC50 in experiment [3] lay in the range of 501 to 5000 nM. For the same compound, the IC50 in experiment [1] and in experiment [2] was 101 to 500 nM each time.

`C[C@H](F)[C@H](N)Cc1oc2c(NCc3ccncc3)nc(Cl)nc2c1Br` [Compound 20, 2-[(2R,3S)-2-amino-3-fluoro-butyl]-3-bromo-5-chloro-7-{[(4-pyridyl)methyl]amino}-1-oxa-4,6-diazaindene]: the EC50 in experiment [3] is 0.01 to 100 nM. Also, the IC50 in experiment [1] was in the range of 101 to 500 nM; in experiment [2], 0.01 to 100 nM.

Compound `C#Cc1nc(NCc2cccs2)c2oc(C[C@@H](N)[C@H](C)F)c(C#C)c2n1` [Compound 26] returned an EC50 in experiment [3] of 101 to 500 nM. Further, the IC50 in experiment [1] and in experiment [2] was 101 to 500 nM throughout.

Regarding `C#Cc1nc(NCc2cccs2)c2oc(C[C@@H](N)[C@H](C)F)c(Br)c2n1` [Compound 27, 6-[(2R,3S)-2-amino-3-fluorobutyl]-7-bromo-2-ethynyl-N-(thiophen-2-ylmethyl)furo[3,2-d]pyrimidin-4-amine], in experiment [3], the EC50 is 101 to 500 nM. Besides, the IC50 in experiment [1] and in experiment [2] was 101 to 500 nM in each case.

As to `C#Cc1nc(NCc2ccco2)c2oc(C[C@@H](N)[C@H](C)F)c(Br)c2n1` [Compound 28, 2-[(2R,3S)-2-amino-3-fluoro-butyl]-3-bromo-5-ethynyl-7-(furfurylamino)-1-oxa-4,6-diazaindene], the 50% effective concentration (EC50) in experiment [3] lay in the range of 101 to 500 nM. Moreover, the IC50 in experiment [1] and in experiment [2] was 101 to 500 nM throughout.

Turning to `C[C@H](N)Cc1oc2c(NCc3cccs3)nc(Cl)nc2c1Br` [Compound 32, 6-[(2S)-2-aminopropyl]-7-bromo-2-chloro-N-(thiophen-2-ylmethyl)furo[3,2-d]pyrimidin-4-amine], the 50% effective concentration (EC50) in experiment [3] lay in the range of 101 to 500 nM. In addition, the IC50 in experiment [1] and in experiment [2] was 101 to 500 nM throughout.

For `C[C@H](N)Cc1oc2c(NCc3ccco3)nc(Cl)nc2c1Br` [Compound 33, 2-[(S)-2-aminopropyl]-3-bromo-5-chloro-7-(furfur-ylamino)-1-oxa-4,6-diaza-indene], in experiment [3], the EC50 lay within 0.01 to 100 nM. Also, the IC50 was 0.01 to 100 nM in experiment [1] and 101 to 500 nM in experiment [2].

Regarding `C[C@H](F)[C@H](N)Cc1oc2c(NCc3cccs3)nc(Cl)nc2c1-c1ncco1` [Compound 34, 6-[(2R,3S)-2-amino-3-fluorobutyl]-2-chloro-7-(1,3-oxazol-2-yl)-N-(thiophen-2-ylmethyl)furo[3,2-d]pyrimidin-4-amine], the IC50 in experiment [2] was in the range of 501 to 5000 nM.
